From US20230348852A1, “METHODS AND COMPOSITIONS FOR OCULAR CELL THERAPY” (NOVARTIS AG, priority 2020, published 2023)

Assays:
human limbal stem cells [1] = test: Human limbal stem cell population expansion and measurement (expansion factor, p63alpha-positive cells); assay type: cell-based; settings: 10 micromolar in XVIVO15 medium, two passages; for Expansion factor: ratio of expanded population to seeded cells; for Percentage of p63a-positive cells: share of Sytox Orange-positive nuclei expressing p63alpha
Method: Cells were cultured at 37° C. in 5% CO2.
For each compound, two sets of cultures were generated. A first set of cultures was fixed in 4% PFA for 20 minutes at room temperature after cells isolated from the cornea had attached to the cell culture dish (typically 24 h after cell plating). A second set of cultures was fixed in 4% PFA for 20 minutes at room temperature after being cultured for two passages. Cells were passaged when they reached 90-100% confluence.
In order to observe that the expanded cell population expressed p63alpha, this was measured by immunohistochemistry as follows. The fixed cell cultures were permeabilized and blocked in a blocking solution of 0.3% Triton X-100 (Sigma-Aldrich) and 3% donkey serum in PBS for 30 minutes. Cells were then labeled with primary antibody in the blocking solution for 12 hours at 4° C. Primary antibody used was p63alpha from Cell Signalling. Samples were washed in PBS three times and donkey-raised secondary antibody Alexa Fluor 488 (Molecular Probes) at 1:500 dilution were applied for 30 minutes at room temperature. Cell nuclei were then labeled in a solution of 0.5 micromolar of Sytox Orange (ThermoFisher) in PBS for 5 minutes at room temperature.
To evaluate the percentage of p63alpha-positive cells, the number of cells labeled by the anti-p63alpha antibody was counted and the total number of cells was determined by counting the number of nuclei stained by Sytox Orange. The proportion of p63alpha-positive cells was then determined by calculating the percentage of Sytox-orange-positive nuclei that also expressed p63alpha.
To evaluate cell expansion ratios, nuclei were counted using a Zeiss LSM 880 confocal microscope. The expansion factor was then determined by calculating the ratio of the expanded population of cells to population of seeded cells.

phospho-YAP (ser127) = test: YAP phosphorylation by Western blot in LSCs exposed to LATS inhibitors; assay type: cell-based, human; settings: 10 micromolar, 1 hour, DMSO as negative control
Method: The medium was then replaced by fresh limbal epithelium cell culture medium (DMEM F12 supplemented with 10% human serum and 1.3 mM calcium chloride) supplemented with LATS inhibitor compound example no. […] Cells were cultured under these conditions for 1 hour at 37° C. in 5% CO2.
To measure the effect of the LATS inhibitors on the downstream target YAP, the YAP phosphorylation levels were measured by western blot as follows. The cell pellets were obtained by trypsin dissociation and centrifugation and washed with PBS. The pellets were lysed with 30 microlitres of RIPA lysis buffer containing protease inhibitor cocktail (Life Technologies) for 30 minutes, with vortexing every 10 minutes. The cell debris were then pelleted at 4° C. for 15 minutes at 14 k rpm and the protein lysate was collected. Protein concentration was quantified using a micro BCA kit (Pierce). Fifteen micrograms of total protein was loaded in each well of 4-20% TGX gels (BioRad) and Western blotting was performed according to the manufacturer’s instructions. […] Membranes were stained with HRP-conjugated secondary antibodies, rinsed and imaged using a ChemiDoc system (Biorad) according to the manufacturer’s instructions.

YAP = test: Intracellular YAP distribution by immunohistochemistry in LSCs exposed to LATS inhibitors; assay type: cell-based, human; settings: 10 micromolar, 24 hours, compared with DMSO control
Method: Cells were cultured under these conditions for 24 hours at 37° C. in 5% CO2.
To measure the effect of the LATS inhibitors on the downstream target YAP, intracellular YAP distribution was analyzed by immunohistochemistry. Cell cultures were fixed with 4% PFA for 20 minutes, permeabilized and blocked in a blocking solution of 0.3% Triton X-100 (Sigma-Aldrich) and 3% donkey serum in PBS for 30 minutes. Cells were then labeled with primary antibody in the blocking solution for 12 hours at 4° C. Primary antibody used was anti-YAP from Santa Cruz Biotechnology. Samples were washed in PBS three times and donkey-raised secondary antibody Alexa Fluor 488 (Molecular Probes) at 1:500 dilution were applied for 30 minutes at room temperature. […] Fluorescence was observed using a Zeiss LSM 880 confocal microscope.

human limbal stem cells [2] = test: Human limbal stem cell population expansion and immunohistochemical observation of p63alpha phenotype; assay type: cell-based; settings: for colony formation and p63alpha expression: 10 micromolar, 6 days after isolation without passaging, DMSO as negative control
Method: Cells were first cultured at 37° C. in 5% CO2 for 6 days after isolation without passaging (FIGS. 2A, 2B and 2C).
To evaluate the ability of the compounds to enable LSC expansion after two passages, LSCs were passaged and cultured for two weeks in the presence of compound example 3 to enable expansion (FIG. 2D). Limbal stem cells (LSCs) were passaged by treating cultures with Accutase for 10 minutes at 37° C., rinsing the cell suspension by centrifugation and plating cells in fresh LSC culture medium supplemented with LATS inhibitor compound example 3.
In order to observe that the expanded cell population expressed p63alpha, this was measured by immunohistochemistry as follows. Cell cultures were fixed with 4% PFA for 20 minutes, permeabilized and blocked in a blocking solution of 0.3% Triton X-100 (Sigma-Aldrich) and 3% donkey serum in PBS for 30 minutes. Cells were then labeled with primary antibody in the blocking solution for 12 hours at 4° C. Primary antibody used was p63alpha from Cell Signalling. Samples were washed in PBS three times and donkey-raised secondary antibody Alexa Fluor 488 (Molecular Probes) at 1:500 dilution were applied for 30 minutes at room temperature. Cells were counter-stained with a human nuclear antigen antibody (Millipore) at a 1:500 dilution in order to label all cells in the culture and confirm their human identity. […] Fluorescence was observed using a Zeiss LSM 880 confocal microscope.

B2M [3] = test: sgRNA screening for B2M knockout in LSCs (nucleofection, FACS); assay type: cell-based, human; settings: Cas9 protein SEQ ID NO: 106, LSCs at passage 3, FACS after around 3 days
Method: Cells were cultured under these conditions for 24-48 hours at 37° C. in 5% CO2.
LSCs were nuclofected with selected gRNAs (Table 6) followed by FACS analysis / MACS separation.
After scraping the cells, the reaction was stopped by using cell culture medium containing 10% Serum and transferred to a falcon tube. After counting cells using Vi-cell 300′000 cells were prepared per reaction by transferring 300′000 cells in single tubes and centrifuged at 1000 rpm for 5 min. The supernatant was aspirated using manually pipetting to avoid cell loss and the cells were resuspended in the Stem cell nucleofector solution II (Lonza, Cat #VPH-5022). Resuspend cells in nucleofector solution immediately before adding the Cas9 RNP:sgRNA mixture. To obtain the nucleofection mixture, 5 µg high concentrated (≥5 µg/µl) Cas9 protein of SEQ ID NO: 106 (volume = 0.78 µl) was mixed with 19.5 µg sgRNA of Table 6 (volume = 12.2 µl) and incubated for 20 min at room temperature. […] The Cas9 protein-guideRNA complex was added to the cell suspension and transferred to the electroporation cuvette immediately. Cells were transfected using the nucelofector device (Lonza, Amaxa Nucleofector II) and program A023. After nucleofection cells were transferred from cuvette to one well of a 24 well synthemax coated plate containing pre-warmed LSC medium including 3 µM LATS compound and 10 µM Rock inhibitor Y-27632 (Nature 1997, vol. 389, pp. 990-994). Incubate LSCs in a 5% CO2 incubator for around 3 days until cells are 90% confluent.
LSCs were treated with TryLE®Express Enzym (ThermoFisher, Cat #12605010) for 15 minutes in 5% CO2 at 37° C. After scraping the cells, the reaction was stopped by using cell culture medium containing 10% Serum and transferred to a falcon tube for a centrifugation step (1000 rpm, 5 minutes). After aspirating the medium cells were resuspended in 200 µl FACS buffer (PBS/10%FBS).
To analyze the expression of B2M and HLA-ABC, 5 µl APC mouse anti-human β2-microglobulin antibody (Biolegend, Cat#316312) and 20 µl PE mouse anti-human HLA-ABC antibody (BD Bioscience, Cat # 560168) were added to the cell suspension and incubated for 30 minutes on ice.
Cells were washed 3 times after antibody labelling with FACS buffer and resuspended in 200 µl in FACS buffer (depending on the cell number).
FACS data were analyzed using BD FACSDiva software and FlowJo software.

[4] = tested on: genomic DNA purified from male human peripheral blood mononuclear cells; test: Biochemical assay for potential off-target genomic sites cleaved by Cas9 and B2M guides; settings: number of potential off-target sites, guide concentration 64 nM
Method: A biochemical method (See, e.g., Cameron et al., Nature Methods. 6, 600-606; 2017) was used to determine potential off-target genomic sites cleaved by Cas9 and selected B2M guides. Guides showing B2M indel activity were tested for potential off-target genomic cleavage sites with this assay. […] The number of potential off-target sites detected using a guide concentration of 64 nM in the biochemical assay are shown in Table 10. As a result of this analysis, several gRNAs were selected for analysis of potential off-target activity in limbal stem cells.

B2M [5] = test: Targeted PCR and NGS (amplicon sequencing) of on-target and off-target sites in genome-edited LSCs; assay type: cell-based, human; settings: for Number of sites positive for off-target activity in LSCs: of the potential off-target loci sequenced; for B2M purified rhAmpSeq indel: purified (B2M negative) LSC populations
Method: Potential CRISPR/Cas9-mediated cutting sites identified above were evaluated using targeted PCR and NGS in genome-edited expanded LSCs.
Selected sgRNAs (SEQ ID NO: 120, 162, 166, 167, 171, and 175) were further analyzed by amplicon sequencing in edited and non-edited cells. Primers flanking the potential off-target sites for each guide were used to detect indels by NGS analysis in edited LSCs and non-edited peripheral blood mononuclear cells. Sites that had either (1) a difference in mean indel percentage between edited and unedited cells greater than 0.5%; or (2) a p value less than 0.05 between edited and unedited indel were further analyzed. NGS sequence reads for such sites were assessed for characteristic indel patterns near the putative Cas9 cut site. Based on the results, we could assess the specificity of gRNAs and their suitability for therapeutic applications.

human B2M = test: CRISPR/Cas9-mediated deletion of B2M in HEK293 (lipofection, FACS); assay type: cell-based; settings: lipofection of tracrRNA, gRNA and Cas9 mRNA; FACS after 72 h
Method: One day before transfection, 500′000 HEK293cells (ATCC, Manassas, VA) were plated in a 35 mm dish and grown in DMEM/10%FBS. The following day, cells were transfected with a mixture of tracrRNA-gRNA-Cas9 mRNA. A stock of 10 micromolar was prepared resuspending 20 nanomoles of gRNA and 20 nanomoles tracrRNA in 2000 microlitre 10 millimolar Tris buffer pH7.4 each.
The mixture was added drop wise to the culture dish in 2.5 ml DMEM/10%FBS medium. The transfection reagent alone represented the transfection negative control.
After 6 h incubation in 5% CO2 at 37° C. medium was replaced with fresh DMEM/10%FBS medium. After 72 h in a 5% CO2 incubator cells were prepared for FACS analysis. FACS analysis: HEK293 cells were treated with Accutase (ThermoFisher, Cat # A1110501) for 20 minutes in 5% CO2 at 37° C. The reaction was stopped by using cell culture medium containing 10% Serum and transferred to a falcon tube for a centrifugation step (1000 rpm, 5 minutes). After aspirating the medium cells were resuspended in 200 microlitre FACS buffer (PBS/10%FBS).
To analyze the expression of B2M and HLA-ABC, 5 microlitre APC mouse anti-human β2-microglobulin antibody (Biolegend, Cat #316312) and 20 microlitre PE mouse anti-human HLA-ABC antibody (BD Bioscience, Cat # 560168) were added to the cell suspension and incubated for 30 minutes on ice. Cells were washed 3 times after antibody labelling with FACS buffer and resuspended in 500 microlitre in FACS buffer.
Each sample was transferred to one well of a round bottom 96 well plate and analyzed on a BD LSRFortessa X-20 device. FACS data were analyzed using BD FACSDiva software.

**Q.** What does the source list for `Cc1n[nH]cc1-c1nc(NC2(C)CC2)c2ccncc2n1` [Example 4, 2-(3-methyl-1H-pyrazol-4-yl)-N-(1-methylcyclopropyl)pyrido[3,4-d]pyrimidin-4-amine]?
**A.** Expansion factor (human limbal stem cells [1]): 1205; Percentage of p63a-positive cells (human limbal stem cells [1]): 89%; YAP phosphorylation levels in human LSCs (Western blot) (phospho-YAP (ser127)): reduction in YAP phosphorylation levels; YAP phosphorylation levels in human LSCs (Western blot) (phospho-YAP (ser127); listed as ex. 4): induce YAP dephosphorylation in LSCs within one hour; YAP immunostaining in the nucleus of LSCs (YAP): stronger in the nucleus; colony formation and p63alpha expression (human limbal stem cells [2]): formed colonies and expressed p63alpha

**Q.** Which Expansion factor (human limbal stem cells [1]) does the source give for `CC(C)(O)CC(C)(C)Nc1nc(-c2ccncc2)nc2cnccc12` [Example 3, 2,4-dimethyl-4-{[2-(pyridin-4-yl)pyrido[3,4-d]pyrimidin-4-yl]amino}pentan-2-ol] here?
**A.** 2029

**Q.** What about the “Percentage of p63a-positive cells” value (human limbal stem cells [1]) of the same molecule?
**A.** 92%

**Q.** And the “YAP phosphorylation levels in human LSCs (Western blot)” value (phospho-YAP (ser127))?
**A.** reduction in YAP phosphorylation levels

**Q.** What about the “YAP phosphorylation levels in human LSCs (Western blot)” value (phospho-YAP (ser127); listed as ex. 3) of the same molecule?
**A.** induce YAP dephosphorylation in LSCs within one hour

**Q.** And the “YAP immunostaining in the nucleus of LSCs” value (YAP)?
**A.** stronger in the nucleus

**Q.** What about the “colony formation and p63alpha expression” value (human limbal stem cells [2]) of the same molecule?
**A.** formed colonies and expressed p63alpha

**Q.** And the “cell population expansion and p63alpha expression after passaging” value (human limbal stem cells [2]; passaged and cultured for two weeks in the presence of the compound)?
**A.** enabled cell population expansion and the formation of confluent cultures expressing p63alpha

B1: 9-HEYJA000005: gRNA targeting human B2M; targeting domain SEQ ID NO: 116; sgRNA SEQ ID NO: 167 (nucleic acid)
guide: UCACGUCAUCCAGCAGAGAAGUUUUAGAGCUAGAAAUAGCAAGUUAAAAUAAGGCUAGUCCGUUAUCAACUUGAAAAAGUGGCACCGAGUCGGUGCUUUU
modifications: listed as RNA, chemistry not given here
**Q.** With B1 as the molecule, how does the “B2M knockout efficiency in LSCs after nucleofection” value (B2M [3]) read?
**A.** 12%

**Q.** What about the “off-target Site_ Count” value [4] of the same molecule?
**A.** 35

**Q.** And the “validated indels for off-target activity in LSCs” value (B2M [5]; amplicon sequencing of potential off-target loci)?
**A.** zero

**Q.** And the “Number of sites positive for off-target activity in LSCs” value (B2M [5])?
**A.** 0 of 35

**Q.** What about the “Number of sites positive for off-target activity in LSCs” value (B2M [5]; listed as SEQ ID NO: 167) of the same molecule?
**A.** no predicted sites tested positive for off-target activity

**Q.** And the “B2M purified rhAmpSeq indel” value (B2M [5])?
**A.** 99.80±0.26%

**Q.** What about the “B2M purified rhAmpSeq indel” value (B2M [5]; listed as SEQ ID NO: 167) of the same molecule?
**A.** ~ 99%

**Q.** What about the “B2M knockout efficiency in HEK293” value (human B2M) of the same molecule?
**A.** 39%
